Tested on: L-1210 leukemia cells
Assay: Antitumour activities (survival of BDF1 mice inoculated intraperitoneally with L-1210 leukemia cells, oral test drug)
Protocol: To BDF1 mice (male, 20-22 g), L-1210 leukemia cells were intraperitoneally inoculated in an amount of 1×10^6 cells/mouse. One day later and 4 days later, a test drug was orally administered. […] Therefore, in this test, Compound No. 3, and a 10 w/v% HCO60 solution were mixed, and pulverized in a wet system to obtain a liquid suspension, and the liquid suspension was administered to each mouse in an amount of 0.5 ml.
The activity was evaluated by a survival rate [T/C (%)]as compared with a control group to which a physiological saline was administered, and T/C values are shown in Table 2.

O=C(NC(=O)c1ccccc1[N+](=O)[O-])Nc1ccc(Oc2ncc(Br)cn2)c(Cl)c1 [Compound No. 3]
toxicity (T/C) (high dose region, composition wet pulverized with HCO60): less than 100%
antitumour activity (in words) (wet pulverized in the absence of HCO60, same dose): no substantial antitumour activity was observed
antitumour activity (in words) (wet pulverized together with the specific substance (HCO60)): adequate antitumour activity

— US5002952A, “Readily absorbed pharmaceutical composition” (priority 1986, dated 1991)
